One test deals with Novikoff hepatoma cells. The experiment in a line: Proliferation inhibition of Novikoff hepatoma cells (cell count after four days of cultivation). Format: cell-based. The following applies: Novikoff hepatoma cells, 100,000 cells seeded per 25 cm2 bottle, counted after four days of cultivation, compared to control without compound; FIGS. 1 and 2. Here is the method:
The cell density was measured after four days of cultivation.
The cell density was measured after 4 days of cultivation.
The Novikoff hepatoma cells utilized in this example were obtained from the tumor bank of the Deutsches Krebsforschungszentrum, Heidelberg (Cancer Research 1951, 17, 1010). 100,000 cells each are seeded per 25 cm^2 cultivation bottle. The substance according to Example 1 of the invention, dissolved in a solvent suitable for use in cell cultures, for instance water, diluted ethanol, dimethylsulfoxide or the like, was added in an increasing concentration to the culture medium, e.g. L-cycloserine (compound 16) or dehydrothreonine (compound 2) in a concentration range of 80 μM-5,000 μM; carbomethoxypropionyl cyanide (compound 13) in a range of 100 μM-300 μM. After four days of cultivation, the number of cells per bottle was counted. The results are shown in FIGS. 1 and 2, and a dose dependence of the proliferation inhibition compared to the control sample without addition of a compound according to the invention can be seen.

Test [1] has as its system glycolysis of Novikoff-Zellen hepatoma cells. Nature of the test: Inhibition of glycolysis of Novikoff cells (lactate produced for glucose consumed). The format is cell-based.

Data on 2 molecules can be found in patent US20100256230A1, “1-BUTANE ACID DERIVATIVES, PHARMACEUTICAL COMPOSITIONS CONTAINING SAID DERIVATIVES AND THE USE THEREOF” (SCHEBO BIOTECH AG, priority 2001, published 2010).

On to `N[C@H]1CONC1=O` [L-glycoserine, L-cycloserine], for which, in the test on Novikoff hepatoma cells, the “inhibition of tumor cell growth (proliferation inhibition, cell density)” value is “dose-dependent inhibition of tumor cell growth”.
As for `COC(=O)CCC(=O)C#N` [carbomethoxypropionyl cyanide], the “inhibition of tumor cell growth (proliferation inhibition, cell density)” value in the test on Novikoff hepatoma cells is “dose-dependent inhibition of tumor cell growth”. For the same molecule, the “inhibition of glycolysis flow, lactate produced for glucose consumed” value in test [1] (FIG. 3) was “massively inhibits the glycolysis flow”; in test [1] (FIG. 3, listed as CMPC), “inhibition of glycolysis”.
